The values that follow come from US6214801A, “Imidazo[1,2-a]pyridine C-nucleosides as antiviral agents” (The Regents of the University of Michigan, priority 1999, dated 2001).

Data set [1] deals with HCMV. The conditions noted are these: background; cited from earlier work.
A short description of data set [2]: Growth cytotoxicity in KB cells (crystal violet staining). Format: cell-based. The conditions noted are these: human, two population doubling times, read-out: 50% Inhibitory Concentration IC50, Cytotoxicity, Growth (KB cells). As to the method: (§1) KB cells (available from the American Type Culture Collection (ATCC) 12301 Parklawn Drive, […], Md. 20852 (ATCC CCL 17)), an established human cell line derived from an epidermal oral carcinoma, were grown in minimal essential medium (MEM) (Sigma) with Hanks salts (MEM(H)) supplemented with 5% fetal calf serum. Human foreskin fibroblasts (HFF cells) (provided by the University of Michigan Hospital) and African green monkey kidney cells (BSC-1) (ATTC CCL 26) cells were grown in MEM with Earl salts (MEM(E)) supplemented with 10% fetal bovine serum. Cells were passaged according to conventional procedures and as described in Shipman, C., Jr. et al. (1976) Antimicrob. Agents Chemother. Vol. 9:120 and incorporated herein by reference. Briefly, cells were passaged at 1:2 to 1:10 dilutions according to conventional procedures by using 0.05% trypsin plus 0.02% EDTA in a HEPES buffered salt solution. HFF cells were passaged onlv at 1:2 dilutions.
(§2) Two different methods were used to evaluate cytotoxicity of the compounds. First, cytotoxicity produced in stationary HFF cells was determined by microscopical examination of cells not affected by the virus used in the plaque assay. Second the effect of compounds on KB cells during two population doubling times was determined by crystal violet staining and spectrophotometric quantitation of dye eluted from stained cells. This method has been utilized for the analysis of ganciclovir and zidovudine (See Prichard, M. N. et al. Antiviral Res. (1991) Vol. 35:1060-1065).

A further data set concerns HSV-1. Nature of the data set: HSV-1 ELISA assay. Format: cell-based, herpes simplex virus type 1, KOS strain. On the procedure: as §1
(§3) A plaque purified isolate, Po, of the Towne strain of HCMV was used in all experiments and was a gift of Dr. Mark Stinski, University of Iowa. The KOS strain of HSV-1 was used and was provided by Dr. Sandra K. Weller, University of Connecticut. Stock preparations of HCMV and HSV-1 were prepared and titered as known to those of skill and the art and described in Turk, S. R. et al. (1987) Antimicrob. Agents Chemother. Vol. 31:544-550 and Shipman, C., Jr., et al. (1990) J. Virol. Methods Vol. 28:101-106, each incorporated herein by reference.
Briefly, high titer HSV-1 stocks were prepared as follows. Nearly confluent monolayer cultures of KB cells were grown in 32 oz. glass bottles containing MEM(E) buffered with 25 mM HEPES and supplemented with 5% fetal bovine serum and 0.127 giliter L-arginine (VGM, virus growth medium). The cultures were infected at a low input multiplicity to reduce the formation of defective virus. After cell cytopathology reached "three to four plus", the cells were harvested by vigorous shaking, and concentrated by centrifugation (800×g for 5 min.). The resulting virus pools were stored at -760C until retrieved for use in experiments.
HSV-1 was titered using monolayer cultures of BSC-1 cells. Cells were planted at 3×10^5 cells/well using 6-well cluster dishes. MEM(E) supplemented with 10% fetal bovine serum was employed as medium. After 22-24 h, cells were 90% confluent and were inoculated in triplicate using at least three ten-fold dilutions with 0.2 ml of the virus suspension to be assayed and incubated in a humidified 4% CO2 -[…] atmosphere for one hour to permit viral adsorption. Following virus adsorption, the cell sheet was overlayed with 5 ml of MEM(E) with 5% serum plus 0.5% methocel (4000 CPS) and incubated an additional two to three days. Cells were fixed and stained with 0.1% crystal violet in 20% methanol and macroscopic plaques enumerated.
(§4) HCMV plaque reduction experiments were performed with monolayer cultures of HFF cells by a procedure similar to that referenced above for titration of the viruses and described in Devivar, R. V. et al. (1994) J. Med. Chem. Vol. 37:2942-2949. Activity of compounds against HSV-1 was evaluated using an ELISA assay.
ELISA techniques according to standard procedures were also used to determine activity against HSV-1. Drug effects were calculated as a percentage of the reduction in virus titers in the presence of each drug concentration compared to the titer obtained in the absence of drug. Ganciclovir was used as a positive control in all experiments.
For orientation: An ELISA detects its analyte on a solid surface through an enzyme-linked reagent.

The nature of another data set: in vitro. Format: cell-based, human. Particulars: human, hff cells. On the procedure: as §1, §2
For another data set, the system named is HFF cells. Nature of the data set: in vitro. Format: cell-based, human. On the procedure: as §1, §2
Data set [3] deals with HCMV. Description: HCMV plaque (focus) reduction assay in HFF cells. Particulars: for IC50: read-out: 50% Inhibitory Concentration IC50, Antiviral Activity, HCMV (plaque assay in HFF cells); for antiviral activity (in words): Table 5. Format: cell-based. On the procedure:
as §1, §3
Stock HCMV was prepared by infecting HFF cells at a multiplicity of infection (m.o.i.) of less that 0.01 plaque-forming units (p.f.u.) per cell. Cell growth medium was changed every four days until cytopathology was evident in all cells (approximately 21 days). Supernatant fluids were retained as the virus stock. Four days later, the remaining cells were disrupted by three cycles of freeze-thawing and the cell plus medium held as an additional source of virus. Storage was in liquid nitrogen.
HCMV was titered in 24-well cluster dishes which were plated to contain 5×10^4 HFF cells/well, grown as described above. When the cells were 70 to 80% confluent, 0.2 ml of the virus suspension was added per well and adsorbed as described above. At least three ten-fold dilutions of each preparation were used. Following virus adsorption, the cell sheets were overlayed with 0.5% methocel (4000 CPS) in maintenance medium [MEM(E) with 1.1 g/liter NaHCO3, 100 units/ml penicillin G, 100 μg/ml streptomycin, and 5% fetal bovine serum]. The cultures were incubated in a humidified atmosphere of 4% CO2 -96% air. Viral plaques were visible 5 to 7 days after infection using at least 10-fold magnification. Cells were fixed and stained by a 10-minute exposure to a 0.1% solution of crystal violet in 20% methanol 7 to 12 days after infection. Microscopic foci were enumerated at 20-fold magnification using a Nikon Profile Projector.
as §4
The effect of compounds of the replication of HCMV was measured using a plaque (focus) reduction assay. For the former, HFF cells in 24-well culture dishes were infected with approximately 50 p.f.u. of HCMV per well using the procedures detailed above. Compounds dissolved in growth medium were added in four to six selected concentrations to duplicate wells following virus adsorption. Following incubation at 37 °C for 7 to 10 days, cell sheets were fixed, stained and microscopic plaques were enumerated as described above. Drug effects were calculated as a percentage of reduction in number of plaques in the presence of each drug concentration compared to the number observed in the absence of drug. […]

The conditions of data set [4]: background; cited from earlier work.
Data set [5] can be described thus: Growth cytotoxicity in CEM cells. Format: cell-based. The conditions noted are these: human, read-out: 50% Inhibitory Concentration IC50, Cytotoxicity, Growth (CEM cells). As to the method: (§5) CEM cells and strain IIIB of HIV-1 were obtained through courtesy of Dr. Louis S. Kurcera, Boman Gray School of Medicine, Wake Forest University. CEM cells were grown in suspension culture and passaged through conventional procedures.

The next data set concerns HIV-1. Nature of the data set: HIV-1 replication, reverse transcriptase (RT) assay in CEM cells. Format: cell-based, HIV-1 strain IIIB. On the procedure: as §5
The activity of compounds against HIV-1 replication was determine by using reverse transcriptase (RT) as a marker for HIV-1. Strain IIIB of HIV-1 was grown in CEM cells maintained in suspension culture as detailed previously (see Kucera et al. AIDS Res. Human Retroviruses, 1993, Vol. 9, pp. 307-314). The assay measured the presence of HIV in supernatants of infected CEM cells by determining the amount of RT activity. Cells were grown, infected with HIV-1, and incubated in the presence of seven concentrations (one-half log10 dilutions) of the test compounds beginning at 1 or 100 μM concentration, depending on the compound to be assayed. Procedures and the RT assay were performed as detailed previously (see White et al., Antiviral Res. 1991, Vol. 16, pp. 257-266).

The mark [6] stands for this setting: Human betaherpesvirus 5, HFF cells, 7 to 10 days.
[7] abbreviates: Human alphaherpesvirus 1; read-out: 50% Inhibitory Concentration IC50, Antiviral Activity, HSV-1 (ELISA assay).

“Also recorded” adds a separate entry of the source. Where two headings read alike, the source gives them in different places.

For the compound `OC[C@H]1O[C@@H](n2c(Br)nc3cc(Cl)c(Cl)cc32)[C@H](O)[C@@H]1O` [BDCRB, 2-bromo-5,6-dichloro-1-(2'-β-D-ribofuranosyl)-benzimidazole], the “antiviral activity of known compounds (in words)” value in the data set on HCMV [1] is reported as “useful against HCMV infections”.
As to `O[C@@H]1[C@H](O)CO[C@@H]1c1c(Cl)nc2cc(Cl)c(Cl)cn12` [Compound +29, 2,6,7-trichloro-3-(α-D-erythrofuranosyl)imidazo[1,2-α]pyridine], the CC50 (in data set [2]; in “in vitro”) was greater than 100 µM throughout. The IC50 with HSV-1 (Human alphaherpesvirus 1, read-out: 50% Inhibitory Concentration IC50, Antiviral Activity, HSV-1 (ELISA assay)) is 80 µM; with HCMV [3] (setting [6]) it was 4.9 µM. Moreover, the “cytotoxicity (in words)” value with HFF cells is reported as “very low cytotoxicity”. For the same compound, in the data set with HCMV [3], the “antiviral activity (in words)” value is reported as “excellent antiviral activity”.
Regarding `OC[C@H]1O[C@@H](n2c(Cl)nc3cc(Cl)c(Cl)cc32)[C@H](O)[C@@H]1O` [TCRB, 2,5,6-trichloro-1-(2'-β-D-ribofuranosyl)benzimidazole], the “cytotoxicity of known compounds (in words)” value in data set [4] was “low cellular toxicity at concentrations inhibiting viral growth”. This compound had a CC50 in “in vitro” of 15 µM. In the data set with HCMV [1], the “antiviral activity of known compounds (in words)” value is given as “useful against HCMV infections; also recorded: very potent activity against HCMV”. Besides, the IC50 in the data set on HCMV [3] (setting [6]) came to 9.5 µM.
In the case of `Clc1cc2nc(Cl)c(C3C=CCO3)n2cc1Cl` (racemic) [Compound 26, 2,6,7-Trichloro-3-(2',3'-dideoxy-2',3'-didehydro-β-D/ L-erythro-furanosyl)-imidazo[1,2-a]pyridine], the CC50 in [2] was greater than 100 µM; in “in vitro”, 222 µM; in data set [5] it was greater than 100 µM. Besides, the IC50 was greater than 100 µM with HSV-1 (setting [7]) and 32 µM with HCMV [3] (setting [6]).
Regarding `OC[C@H]1O[C@@H](n2cnc3cc(Cl)c(Cl)cc32)[C@H](O)[C@@H]1O` [DRB, 5,6-dichloro-1-(β-D-ribofuranosyl) benzimidazole], the “cytotoxicity of known compounds (in words)” value in [4] was “generally unacceptable levels of cytotoxicity”. For the same compound, the “antiviral activity of known compounds (in words)” value in the data set with HCMV [1] was “only marginal levels of activity”.
Take `OC[C@@H]1C=C[C@H](c2c(Cl)nc3cc(Cl)c(Cl)cn23)O1` [Compound 76, 2,6,7-Trichloro-3-(2',3'-dideoxy-2',3'-didehydro-β-D-ribofuranosyl) imidazo[1,2-a] pyridine]: the CC50 was greater than 100 µM in data set [2], 100 µM in “in vitro” and greater than 100 µM in data set [5]. The IC50 in the data set on HSV-1 (setting [7]) was greater than 100 µM; with HCMV [3] (Human betaherpesvirus 5, HFF), 32 µM. Moreover, the “50% Inhibitory Concentration IC50, Antiviral Activity, HIV-1 (RT Assay)” value in the data set with HIV-1 (CEM cells, strain IIIB) is reported as 14/25.
Take “5-(5'-O-[(tert-Butyl)dimethylsilyl]-2',3'-O-isopropylidene-β-D-ribofuranosyl)-imidazo[1,2-a]pyridine [Compound 44]”: in the data set on HIV-1 (Table 6), the “HIV-1 antiviral activity (in words)” value is recorded as “HIV-1 antiviral activity at non-cytotoxic concentrations”.
With `O[C@H]1[C@@H](O)CO[C@H]1c1c(Cl)nc2cc(Cl)c(Cl)cn12` [Compound -29], in the data set on HFF cells, the “cytotoxicity (in words)” value is “very low cytotoxicity”. Moreover, the “antiviral activity (in words)” value with HCMV [3] is “excellent antiviral activity”.
